The subject of test [1] is Human newborn dermal fibroblasts (NB1RBG). Put plainly: Inhibitory activity on the extracellular matrices production of fibroblasts with TGF-β, collagen staining method (anti-human type I collagen antibody; type I collagen sedimentation). The note with it: Fibroblast, 120 h. The test is classed as cell-based. The text has this:
Test samples used were Intin-koo extract (Preparation example 1), Forsythia suspensa VAHL. extract (Preparation example 2), Sophora flavescens AITON. extract (Preparation example 3), Rheum palmatum L. extract (Preparation example 4), Glycyrrhiza alabra L. var. glandulifera Regel et Herder extract (Preparation example 5), Goboosi extract with water (Preparation example 6), Goboosi extract with ethanol (Preparation example 7), zhimu extract (Preparation example 8), Dokkatu extract (Preparation example 9), mutong extract (Preparation example 10), soozyutu extract (Preparation example 11), o-phenanthroline (produced by Dojin Chemical Co.: special grade chemical), 2,2'-dipyridyl (produced by Aldrich Chemical Co.) and malotilate (extracted from Kantec tablet produced by Daiichi Pharmaceutical Co.).
(§1) Human newborn dermal fibroblasts (NB1RBG) (obtained from the Institute of Physical and Chemical Research) was subcultured in DMEM medium containing 10 % fetal bovine serum for provision to the test.
(§2) 2×10^4 NB1RBG cells per well were incubated in flat-bottomed 96-well microtiter plates containing 100 μl/well of each of DMEM media each containing 1 % fetal bovine serum and containing one of the test samples and TGF-β (5 ng/ml), at 37° C.-5 % CO2 for 5 days. A group not containing any test sample or TGF-β was also prepared, and incubation thereof was carried out at the same time with the test groups. After the completion of the incubation, the flat-bottomed 96-well microtiter plates on which the adhered cells and the extracellular matrices were adhered were stained with the following two methods for evaluation, respectively.
(b) Staining with anti-collagen antibody
First, the culture supernatants were removed, the wells were washed with phosphate-buffered physiological saline, and fixation was carried out with methanol under ice cooling for 10 minutes. Then, blocking was made with milk protein solution, Block Ace (produced by DAINIPPON PHARMACEUTICAL CO.), and rabbit anti-human type I collagen antibody (produced by CHEMICON CO.), biotin-labeled anti-rabbit immunoglobulin (produced by Amersham CO.) and avidin-biotin-labeled peroxidase complex (produced by Amersham CO.) were successively reacted to enzyme-label the sedimented type I collagen. 100 μl/well of 0.1 M citric acid phosphate buffer (pH 4.0) containing 2.5 mM 2,2'-azino-bis(3-ethylbenzothia-zoline-6-sulfate) (produced by SIGMA CO.) and 0.015 % H2 O2 was reacted therewith, and one hour later, absorbance at O.D. 415 was measured by a plate reader. The inhibition percetages of the type I collagen sedimentation in an unstimulating state and in a TGF-β-stimulating state were calculated according to the following equations.
The inhibition percentage of the production of extracellular matrices in an unstimulating state (%) [formula] The inhibition percentage of the production of extracellular matrices in TGF-β-stimulating state (%) [formula] E: The absorbance of a group containing only the solvent with which the test sample was prepared, and not containing TGF-β.
F: The absorbance of a group containing a test sample, but not containing TGF-β.
G: The absorbance of a group containing the solvent with which the test sample was prepared, and TGF-β.
H: The absorbance of a group containing a test sample and TGF-β.

Test [2] shares this test system. Briefly: Inhibitory activity on the extracellular matrices production of fibroblasts with TGF-β, dye (Crystal Violet) staining method. The test is classed as cell-based. The note with it: Fibroblast, 120 h. As for the experimental part:
as §1, §2
First, the culture supernatants were removed, the wells were washed with phosphate-buffered physiological saline, 100 μl/well of 0.05 % Crystal Violet-20 % ethanol staining solution was added, and the mixtures were left alone at room temperature for 10 minutes. Then, the plates were washed with flowing water and air dried, the remaining Crystal Violet was dissolved with 100 μl/well of methanol, and the absorbance at O.D. 570-690 was measured by a plate reader. The inhibition percentages of the production of extracellular matrices in an unstimulating state and in a TGF-β-stimulating state were calculated according to the following equations.
The inhibition percentage of the production of extracellular matrices in an unstimulating state (%) [formula] The inhibition percentage of the production of extracellular matrices in a TGF-β-stimulating state (%) [formula] A: The absorbance of a group containing only the solvent with which the test sample was prepared, and not containing TGF-β.
B: The absorbance of a group containing a test sample, but not containing TGF-β.
C: The absorbance of a group containing the solvent with which the test sample was prepared, and TGF-β.
D: The absorbance of a group containing a test sample and TGF-β.

Test [3] has as its system dermal fibrosis induced with bleomycin. Briefly: Inhibitory activity on the production of collagen in dermal fibrosis model induced with bleomycin. The test is classed as in vivo, Hos:hr-1 male hairless mice. The conditions noted are these: bleomycin 10 mg/kg/day i.p. 10 days, day 30. As to the method:
Hos:hr-1 male hairless mice (5 weeks old) were used.
10 mg/kg/day portions of bleomycin were intraperitoneally administered to the hairless mice for 10 successive days. 0.1 ml Portions of ethanol solutions or Vaseline ointments of the Sophora flavescens AITON. extraction, the Rheum palmatum L. extract, o-phenanthroline and malotilate were applied onto the back skins every day from the start of the test, respectively. 30 Days later from the start of the test, the back skins were excised. The amounts of collagen in the excised skins were assayed using hydroxyproline amount as an index.
The inhibition percentage of dermal fibrosis with bleomycin was caluculated according to the following equation.
Inhibition percentage of dermal fibrosis (%) [formula] J: Hydroxyproline amount in the untreated group K: Hydroxyproline amount in the group of bleomycin administration+application of the base alone
L: Hydroxyproline amount in the group of bleomycin administration+application of the drug

[4] abbreviates: read-out: Inhibition percentage of the extracellular matrices production, collagen staining method, TGF-β (+).
[5] abbreviates: read-out: Inhibition percentage of the extracellular matrices production, collagen staining method, TGF-β (-).
The mark [6] stands for this setting: read-out: Inhibition percentage of the extracellular matrices production, dye staining method, TGF-β (+).
Setting [7] is: read-out: Inhibition percentage of the extracellular matrices production, dye staining method, TGF-β (-).
The mark [8] stands for this setting: 1 × 10^-4 M, TGF-β 5 ng/ml, 5 days, read-out: Inhibition percentage of the extracellular matrices production, collagen staining method, TGF-β (+).
[9] abbreviates: 1 × 10^-4 M, unstimulated, 5 days, read-out: Inhibition percentage of the extracellular matrices production, collagen staining method, TGF-β (-).
Where [10] appears, read: 1 × 10^-5 M, TGF-β 5 ng/ml, 5 days, read-out: Inhibition percentage of the extracellular matrices production, collagen staining method, TGF-β (+).
Where [11] appears, read: 1 × 10^-5 M, unstimulated, 5 days, read-out: Inhibition percentage of the extracellular matrices production, collagen staining method, TGF-β (-).
[12] abbreviates: 1 × 10^-6 M, TGF-β 5 ng/ml, 5 days, read-out: Inhibition percentage of the extracellular matrices production, collagen staining method, TGF-β (+).
The mark [13] stands for this setting: 1 × 10^-6 M, unstimulated, 5 days, read-out: Inhibition percentage of the extracellular matrices production, collagen staining method, TGF-β (-).
Setting [14] is: 1 × 10^-4 M, TGF-β 5 ng/ml, 5 days, read-out: Inhibition percentage of the extracellular matrices production, dye staining method, TGF-β (+).
Setting [15] is: 1 × 10^-4 M, unstimulated, 5 days, read-out: Inhibition percentage of the extracellular matrices production, dye staining method, TGF-β (-).
The mark [16] stands for this setting: 1 × 10^-5 M, TGF-β 5 ng/ml, 5 days, read-out: Inhibition percentage of the extracellular matrices production, dye staining method, TGF-β (+).
[17] abbreviates: 1 × 10^-5 M, unstimulated, 5 days, read-out: Inhibition percentage of the extracellular matrices production, dye staining method, TGF-β (-).
Where [18] appears, read: 1 × 10^-6 M, TGF-β 5 ng/ml, 5 days, read-out: Inhibition percentage of the extracellular matrices production, dye staining method, TGF-β (+).
Setting [19] is: 1 × 10^-6 M, unstimulated, 5 days, read-out: Inhibition percentage of the extracellular matrices production, dye staining method, TGF-β (-).

Regarding `c1ccc(-c2ccccn2)nc1` [2,2'-Dipyridyl, 2,2'-dipyridyl], the inhibition (in general, the drop in the measured response relative to a control, in per cent) at 1 µM in test [1] (setting [4]) came out at 14%; in test [1] (setting [5]) it was 10%; in test [2] (setting [6]), 7%; in test [2] (setting [7]), 5%. For the same compound, the inhibition at 10 µM in test [1] (setting [4]) was 30%; in test [1] (setting [5]), 15%; in test [2] (setting [6]), 7%; in test [2] (setting [7]) it was 25%. The inhibition at 100 µM was 77% in test [1] (setting [4]), 18% in test [1] (setting [5]), 84% in test [2] (setting [6]) and 44% in test [2] (setting [7]).
As for `CC(C)OC(=O)C(C(=O)OC(C)C)=C1SC=CS1` [Malotilate, malotilate], the inhibition at 100 µM in test [1] (setting [8]) turned out to be 98%; in test [1] (setting [9]), 7%; in test [2] (setting [14]), 92%; in test [2] (setting [15]), 20%. Further, the inhibition at 10 µM in test [1] (setting [10]) was determined as 68%; in test [1] (setting [11]) it was 6%; in test [2] (setting [16]), 53%; in test [2] (setting [17]), 23%. For the same compound, the inhibition at 1 µM in test [1] (setting [12]) came to 20%; in test [1] (setting [13]), 9%; in test [2] (setting [18]), 18%; in test [2] (setting [19]) it was 21%. In addition, the “Hydroxyproline amount per weight of dried skin” value was found to be 1.66 ± 0.25 µg/mg in test [3] (5% applied to back skin daily) and 1.47 ± 0.19 µg/mg in test [3] (10% applied to back skin daily). Moreover, the results for the “Inhibition percentage of dermal fibrosis” value in test [3] (5% applied to back skin daily) and in test [3] (10% applied to back skin daily) were 52.2% and 80.6%, respectively.
On to `c1cnc2c(c1)ccc1cccnc12` [o-Phenanthroline, o-phenanthroline], for which the inhibition at 100 µM in test [1] (setting [8]) stood at 100%; in test [1] (setting [9]) it was 20%; in test [2] (setting [14]), 95%; in test [2] (setting [15]), 0%. Moreover, the inhibition at 10 µM in test [1] (setting [10]) stood at 90%; in test [1] (setting [11]), 16%; in test [2] (setting [16]) it was 86%; in test [2] (setting [17]), 0%. The inhibition at 1 µM came to 27% in test [1] (setting [12]), 11% in test [1] (setting [13]), 1% in test [2] (setting [18]) and 7% in test [2] (setting [19]). Further, the “Hydroxyproline amount per weight of dried skin” value was determined as 1.72 ± 0.16 µg/mg in test [3] (5% applied to back skin daily) and 1.43 ± 0.10 µg/mg in test [3] (10% applied to back skin daily). Further, the figures for the “Inhibition percentage of dermal fibrosis” value in test [3] (5% applied to back skin daily) and in test [3] (10% applied to back skin daily) were 43.3% and 86.6%, respectively.

These data come from patent US6068845A, “Inhibition of abnormal accumulation of extra-cellular matrices” (Institute for Advanced Skin Research Inc., priority 1996, dated 2000).
